The structures appear in SMILES notation. pIC50: −log10 of the molar value.

Our source for the IC50 values is ChEMBL document CHEMBL1131444, “The 16,17-double bond is needed for irreversible inhibition of human cytochrome p45017alpha by abiraterone (17-(3-pyridyl)androsta-5, 16-dien-3beta-ol) and related steroidal inhibitors” (J Med Chem, 1998).

The target of the experiment is T1, Steroid 17-alpha-hydroxylase/17,20 lyase (Homo sapiens, UniProt P05093).
T1 sequence (P05093 whole entry): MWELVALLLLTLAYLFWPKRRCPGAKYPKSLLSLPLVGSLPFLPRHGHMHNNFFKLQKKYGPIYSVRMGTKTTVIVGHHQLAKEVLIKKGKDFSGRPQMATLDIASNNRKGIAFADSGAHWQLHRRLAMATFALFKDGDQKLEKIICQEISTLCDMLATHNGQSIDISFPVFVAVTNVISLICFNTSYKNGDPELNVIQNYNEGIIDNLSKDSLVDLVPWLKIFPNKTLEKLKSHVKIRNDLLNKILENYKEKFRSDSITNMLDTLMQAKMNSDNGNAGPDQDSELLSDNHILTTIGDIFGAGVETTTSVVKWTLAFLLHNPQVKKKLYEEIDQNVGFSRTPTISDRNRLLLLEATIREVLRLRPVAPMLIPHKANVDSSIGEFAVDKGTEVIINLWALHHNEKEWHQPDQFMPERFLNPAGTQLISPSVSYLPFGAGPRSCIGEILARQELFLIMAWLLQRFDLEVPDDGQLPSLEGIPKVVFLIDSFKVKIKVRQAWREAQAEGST
Kind of experiment: Inhibition of human progesterone 17-alpha-hydroxylase.
`C[C@]12CC[C@H](O)C[C@@H]1CC[C@@H]1[C@@H]2CC[C@@]2(C)[C@H]1C[C@H]1O[C@]12c1cccnc1` showed a negative logarithm of the IC50 (pIC50) of 6.59.

In turn, `C[C@]12CC[C@H](O)C[C@@H]1CC[C@@H]1[C@@H]2CC[C@]2(C)[C@@H](c3cccnc3)CC[C@@H]12` had a pIC50 of 7.13.

Compound `C[C@]12CC[C@H](O)C[C@@H]1CC[C@@H]1[C@@H]2CC[C@]2(C)C(c3cccnc3)CC[C@@H]12` (stereo not given in full) had a pIC50 of 8.30.

On to `C[C@]12CCC(=O)C=C1CCC1C2CC[C@]2(C)C(c3cccnc3)=CCC12` (stereo not given in full), for which the pIC50 was 8.52.

Compound `C[C@]12CCC3C(CC=C4C[C@@H](O)CC[C@@]43C)C1CCC2c1ccncc1` (single isomer, unassigned) gave a pIC50 of 7.57.
